Data from US20090060984A1, “ANIONIC SURFACTANTS LETHAL TO GRAM-POSITIVE BACTERIA” (priority 2007, published 2009).
Values joined by “and” are separate entries in the source; they are usually repeats but may differ in a detail not shown here. Equal entries are not always repeated. Where two headings read alike, the source gives them in different places.

Legend:
[1] = test system: P. aeruginosa ATCC 15442; conditions: for CFU/mL of E. coli at 24 hours / CFU/mL of E. coli at 12 hours: exposed to P. aeruginosa, polyurethane, microscope slides
Protocol: Escherichia coli ATCC 11229 (Culti-loops, Remel Europe, Dartford, Kent, UK) and Pseudomonas aeruginosa ATCC 15442 (Cuti-loops, Remel Europe, Dartford, Kent, UK) were selected as model Gram-negative organisms for the challenge testing of the antimicrobial coatings. Each bacterial strain was streaked for isolated colonies on Tryptic Soy Agar (TSA) plates (Difco, Becton Dickinson, Sparks, Md., U.S.A.) and incubated at 37° C. for 12 to 18 hours. Broth cultures were prepared by first picking 1-2 isolated colonies from TSA plates and inoculating 5 mL Tryptic Soy Broth (TSB; Difco, Becton Dickinson, Sparks, Md., U.S.A.) in a 16 mm test tube. This culture was grown in a shaking water bath at 150 RPM for 8 hours at 37° C. After the eight hours, 125 μL of this culture was added to 50 mL of TSB in a side-arm Klett flask and grown for approximately 8 hours in shaking water bath (150 RPM) at 37° C. The bacterial broths were grown to an A590 of 1.2-1.5, which correlated to approximately 10^9 CFU (colony forming units)/mL. 25 mL of this broth were transferred to a sterile 30 mL Oakridge tube and centrifuged at 12,000×g for 10 minutes at 4° C. (Sorval SS34 rotor) to pelletize the bacteria. The bacterial pellet was washed once and resuspended in 25 mL of phosphate buffer solution (PBS; BBL, FTA Hemaglutination Buffer, Becton Dickinson, Sparks, Md., U.S.A.). The suspension was diluted with PBS to achieve the target range of 10^5-10^6 CFU/mL and used to inoculate the slides containing antibacterial coatings.
The 10% substitution on this weight basis corresponds to substitution of one tenth of the total surfactant weight or to 3% of the total composition weight.
The second set of coatings was made on microscope slides and challenged with E. coli ATCC 11229 and P. aeruginosa ATCC 15442. In these coatings, the gradient levels of incorporated silver were: 0%, 0.02%, 0.05%, 0.1%, 0.2%, 0.5%, 1.0% and 2.0% of the 30% NaAOT control amount. […] These gradients were tested at three inoculation time points, 0 hours, 12 hours, and 24 hours, with the 0% silver and 0 hours slides as controls.
The bacterial cultures were prepared as described in Example 12. Once the slides were inoculated, those assigned to incubate for 12 hours or 24 hours were placed in a humidified chamber by placing the Petri dishes containing the slides on test tubes that had been taped to the bottom of a 9″×13″ Pyrex dish. These test tubes held the Petri dishes just above the bottom of the dish, into which about 500 mL of sterile water was added. The Pyrex dish was also sterilized via UV irradiation (at least 4 minutes of exposure) prior to each challenge to protect against contamination. The dish was then covered with plastic wrap and tin foil and incubated at room temperature (20° C. to 25° C.).
At each time point (0 hours, 12 hours, and 24 hours), 25 mL of sterile PBS was pipetted into the Petri dish completely submerging the glass slide coated with the antimicrobial polymer.

[2] = test system: Staphylococcus aureus ATCC 6538;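 also: bacterial suspension pipetted onto each coated surface, then recovered in PBS, serially diluted and spread on TSA plates to count viable colonies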
Protocol: The antimicrobial activities of the coatings on coupons and slides are tested against both Gram-positive (Staphylococcus aureus ATCC 6538) and Gram-negative (Escherichia coli ATCC 11229) bacteria. The following set of steps are executed over a four day period, in order to evaluate the coatings for antimicrobial activity.
(1) Three colonies are picked from a Petri dish that contains refrigerator stock of E. coli and S. aureus. Each of the colonies is placed into a separate test tube of 5 mL of TSB (tryptic soy broth); (2) the TSB cultures are incubated in a heated shaker; the culture is grown overnight at 37° C. while shaking at 175 rpm.
(1) 500 μL (0.5 mL) of FINAL E. coli bacteria are placed onto the center of each sterilized coating (24 hour); the same is done with S. aureus; (2) the coupons/coatings are stored for 24 hours in sealed pan by stacking Petri dishes on top of one another; (3) 200 mL of sterile water is added to the bottom of each pan; each pan is enclosed with clear saran wrap and aluminum foil; the Pyrex pans containing the coatings are incubated at room temperature for 24 hours; all inoculations of the coatings are performed in the same laminar flow hood as where the sterilized slides are placed into sterile Petri dishes; the prepared bacterial suspension (0.5 ml) is directly pipetted onto the coating of the slide; the spreading of the innoculum across the surface of the coating is observed and noted.
(1) 500 μL (0.5 mL) of FINAL E. coli bacteria is placed onto the center of each sterilized coating (0 hour); the same is done with S. aureus; (2) after bacteria are added to the 0 hour coatings, each Petri dish (containing the coating) is submerged with 25 mL of PBS; this immersion stops the viable bacteria from continuing to grow; (3) 100 μL of fluid is removed from coatings dish and placed in the middle of a previously labeled TSA plate; this is done to both agar plates labeled with −1 concentration; before removing the fluid, the surface of the coupon is scratched with a sterile loop to activate movement of bacteria; (4) “hockey sticks” are sterilized with ethanol and flame, to spread solution thoroughly; (5) the concentration of bacteria is diluted by removing 500 μL of the fluid in the coupon dish and placing it into a test tube with 4.5 mL of PBS; this solution is diluted in duplicate by removing 100 μL of the fluid and spreading into TSA plates labeled −2; (6) sterilized “hockey sticks” are used to spread solution thoroughly; (7) 500 μL of fluid from 1st tube prepared in step 5 is removed and placed into 4.5 mL of PBS; this dilution is mixed and 100 μL is removed in duplicate and placed into two new TSA plates labeled −3; (8) sterilized “hockey sticks” are used to spread these dilutions thoroughly; (9) steps 1-8 are repeated for each of the coupons or slides.

[3] = test system: E. coli; conditions: 24 h contact time
Excerpt: (§1) PU formulated at a TDI: PPG mole ratio of 1.5:1 are post treated with water.

[4] = test system: S. aureus; conditions: 24 h contact time
Excerpt: as §1

[5] = 0.061% weight w/w Ag in coating (first column 0.113)
[6] = 0.122% weight w/w Ag in coating (first column 0.226)
[7] = […] weight w/w Ag in coating (first column 0.0574)
[8] = acetate sprayed with 0.06% w/w AgAOT/isopropanol, 0 h contact time
[9] = acetate sprayed with 0.06% w/w AgAOT/isopropanol, 24 h contact time
[10] = cotton sprayed with 0.06% w/w AgAOT/isopropanol, 0 h contact time
[11] = cotton sprayed with 0.06% w/w AgAOT/isopropanol, 24 h contact time
[12] = linen sprayed with 0.06% w/w AgAOT/isopropanol, 24 h contact time
[13] = metal plate sprayed with 0.06% Ag+ AgAOT solution, 24 h contact time
[14] = polyester sprayed with 0.06% w/w AgAOT/isopropanol, 0 h contact time
[15] = polyester sprayed with 0.06% w/w AgAOT/isopropanol, 24 h contact time
[16] = rayon sprayed with 0.06% w/w AgAOT/isopropanol, 24 h contact time
[17] = silk sprayed with 0.06% w/w AgAOT/isopropanol, 0 h contact time
[18] = silk sprayed with 0.24% w/w AgAOT/isopropanol, 24 h
[19] = vinyl tile sprayed with 0.06% Ag+ AgAOT solution, 24 h contact time
[20] = wall-paper sprayed with 0.06% Ag+ AgAOT solution, 24 h contact time
[21] = 0.01 weight % Ag in PU composition
[22] = 0.03 weight % Ag in PU composition
[23] = 0.10 weight % Ag in PU composition
[24] = 0.30 weight % Ag in PU composition
[25] = 1.0 weight % Ag in PU composition
[26] = 3.0 weight % Ag in PU composition

Structure (SMILES): CCCCC(CC)COC(=O)CC(C(=O)OCC(CC)CCCC)S(=O)(=O)[O-].[Ag+] (stereo not drawn) [AgAOT]
- Overall silver level effective as bactericide ([1]; 12 hours of exposure): 0.06 % weight silver relative to coating weight
- Smallest level examined that appears effective at killing the P. aeruginosa ([1]; 24 h exposure): 0.0012 % weight Ag relative to overall coating weight
- Overall silver level effective as bactericide ([1]; 24 hours of exposure): 0.006 % weight silver relative to coating weight
- CFU/mL of E. coli at 24 hours ([1]; 0.0061% weight w/w Ag in coating (first column 0.0113)): 0, 0, 0 CFU/mL
- CFU/mL of E. coli at 12 hours [1, 5]: 0, 0, 0 CFU/mL
- CFU/mL of E. coli at 24 hours [1, 5]: 0, 0, 0 CFU/mL
- CFU/mL of E. coli at 12 hours [1, 6]: 0, 0, 0 CFU/mL
- CFU/mL of E. coli at 24 hours [1, 6]: 0, 0, 0 CFU/mL
- CFU/mL of E. coli at 24 hours ([1]; […] weight w/w Ag in coating (first column 0.00230)): 0, 0, 0 CFU/mL
- CFU/mL of E. coli at 12 hours [1, 7]: 0, 0, 0 CFU/mL
- CFU/mL of E. coli at 24 hours [1, 7]: 0, 0, 0 CFU/mL
- S. aureus CFU/mL, Average [2, 8]: 0.00E+00 CFU/mL
- S. aureus CFU/mL, Run #1-#4 [2, 8]: 0.00E+00 CFU/mL
- S. aureus CFU/mL, Average [2, 9]: 0.00E+00 CFU/mL
- S. aureus CFU/mL, Run #1-#4 [2, 9]: 0.00E+00 CFU/mL
- S. aureus CFU/mL, Average [2, 10]: 0.00E+00 CFU/mL
- S. aureus CFU/mL, Run #1-#4 [2, 10]: 0.00E+00 CFU/mL
- S. aureus CFU/mL, Average [2, 11]: 0.00E+00 CFU/mL
- S. aureus CFU/mL, Run #1-#4 [2, 11]: 0.00E+00 CFU/mL
- S. aureus CFU/mL, Average ([2]; linen sprayed with 0.06% w/w AgAOT/isopropanol, 0 h contact time): 1.24E+04 CFU/mL
- S. aureus CFU/mL, Average [2, 12]: 0.00E+00 CFU/mL
- S. aureus CFU/mL, Run #1-#4 [2, 12]: 0.00E+00 CFU/mL
- S. aureus CFU/mL, Avg ([2]; metal plate sprayed with 0.06% Ag+ AgAOT solution, 0 h contact time): 3.90E+04 CFU/mL
- S. aureus CFU/mL, Avg [2, 13]: 0.00E+00 CFU/mL
- S. aureus CFU/mL, Run #1-#2 [2, 13]: 0.00E+00 CFU/mL
- S. aureus on sprayed household surfaces ([2]; metal plate, wall paper, vinyl tile, 0.06% silver solution, 24 h contact time): Complete killing is obtained for each of the surfaces
- S. aureus CFU/mL, Average [2, 14]: 0.00E+00 CFU/mL
- S. aureus CFU/mL, Run #1-#4 [2, 14]: 0.00E+00 CFU/mL
- S. aureus CFU/mL, Average [2, 15]: 0.00E+00 CFU/mL
- S. aureus CFU/mL, Run #1-#4 [2, 15]: 0.00E+00 CFU/mL
- S. aureus CFU/mL, Average ([2]; rayon sprayed with 0.06% w/w AgAOT/isopropanol, 0 h contact time): 1.88E+02 CFU/mL
- S. aureus CFU/mL, Average [2, 16]: 0.00E+00 CFU/mL
- S. aureus CFU/mL, Run #1-#4 [2, 16]: 0.00E+00 CFU/mL
- Inhibition of S. aureus growth ([2]; rayon, 0.06% Ag AgAOT/isopropanol, 0 h contact time): 3 orders of magnitude
- S. aureus CFU/mL, Average [2, 17]: 1.45E+05 CFU/mL
- S. aureus CFU/mL, Run #1-#2 [2, 17]: 1.80E+05 CFU/mL and 1.10E+05 CFU/mL
- S. aureus CFU/mL, Average ([2]; silk sprayed with 0.06% w/w AgAOT/isopropanol, 24 h contact time): 9.13E+03 CFU/mL
- S. aureus CFU/mL, Average ([2]; silk sprayed with 0.24% w/w AgAOT/isopropanol, 0 h): 1.35E+05 CFU/mL
- S. aureus CFU/mL, Average [2, 18]: 0.00E+00 CFU/mL
- S. aureus CFU/mL, Run #1-#4 [2, 18]: 0.00E+00 CFU/mL
- S. aureus CFU/mL, Avg ([2]; vinyl tile sprayed with 0.06% Ag+ AgAOT solution, 0 h contact time): 1.25E+05 CFU/mL
- S. aureus CFU/mL, Avg [2, 19]: 0.00E+00 CFU/mL
- S. aureus CFU/mL, Run #1-#2 [2, 19]: 0.00E+00 CFU/mL
- S. aureus CFU/mL, Avg ([2]; wall-paper sprayed with 0.06% Ag+ AgAOT solution, 0 h contact time): 9.75E+04 CFU/mL
- S. aureus CFU/mL, Avg [2, 20]: 0.00E+00 CFU/mL
- S. aureus CFU/mL, Run #1-#2 [2, 20]: 0.00E+00 CFU/mL
- E. coli growth on PU composition [3, 21]: +
- E. coli growth on PU composition [3, 22]: +
- E. coli growth on PU composition [3, 23]: +
- E. coli growth on PU composition [3, 24]: −
- E. coli growth on PU composition [3, 25]: −
- E. coli growth on PU composition [3, 26]: −
- Silver level providing complete inhibition ([3]; PU composition): 0.30 % w/w silver
- S. aureus growth on PU composition [4, 21]: +
- S. aureus growth on PU composition [4, 22]: +
- S. aureus growth on PU composition [4, 23]: +
- S. aureus growth on PU composition [4, 24]: −
- S. aureus growth on PU composition [4, 25]: −
- S. aureus growth on PU composition [4, 26]: −
- Silver level providing complete inhibition ([4]; PU composition): 0.30 % w/w silver
